In publication PMC8192908 (Scientific Reports, 2021):
pKd: −log10 of the molar value. Several values for one entry are separate records, joined by “and”; a condition that tells them apart may be missing. Equal entries are not always repeated.

Key:
[1] = target: T1, PDE4A (Homo sapiens, UniProt P27815); test: ITC binding of PTX to the catalytic domain of PDE4A
T1 construct: Catalytic domain of each protein was cloned between BamHI and XhoI restriction sites in; 6xHis-SUMO (N, cleaved yes); made in house; host or cells: E. coli Rosetta 2 (DE3)
T1 sequence (P27815 357-686 limits assumed): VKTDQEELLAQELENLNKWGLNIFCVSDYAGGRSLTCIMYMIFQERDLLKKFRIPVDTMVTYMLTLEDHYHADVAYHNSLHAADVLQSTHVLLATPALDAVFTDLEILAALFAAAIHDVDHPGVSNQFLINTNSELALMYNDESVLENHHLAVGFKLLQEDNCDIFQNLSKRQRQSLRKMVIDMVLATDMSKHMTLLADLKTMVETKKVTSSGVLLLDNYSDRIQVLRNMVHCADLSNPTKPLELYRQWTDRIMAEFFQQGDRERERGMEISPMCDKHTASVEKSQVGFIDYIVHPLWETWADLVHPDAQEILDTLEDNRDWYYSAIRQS
Text: (§1) Supplementary Materials and Methods
(§2) Cloning, expression and purification of catalytic domains of PDE4A, […]
(§3) The full length human PDE4A (1005 bp), PDE4D (981 bp) and PDE10A (957 bp) cDNAs, cloned in pET28a(+) expression vector, were purchased from Biomatik, Canada.
(§4) Catalytic domain of each protein was cloned between BamHI and XhoI restriction sites in 6x-His-SUMO-tagged bacterial expression vector. The catalytic domain constructs of PDE4A, PDE4D and PDE10A were transformed in E. coli Rosetta 2 (DE3) competent cells for expression. After growing the transformed cells at 37 °C, till the OD 600nm reached 0.5-0.7, the culture containing constructs of PDE4A and PDE4D were induced with 0.1 mM IPTG and the cultures were incubated at 15 °C for 16-18 h, whereas those with PDE10A constructs were induced with 0.5 mM at incubated for 35 -40 h followed by cell harvesting. Harvested cells were suspended in lysis buffer (500 mM NaCl, 50 mM Tris - Cl pH 8.0, 10 mM Imidazole, 3 mM β-mercaptoethanol) and lysed by sonication (Qsonica). The lysates were cleared by centrifugation at 20,000g for 1h and supernatant was passed through Ni-NTA affinity column (His-Trap, GE Healthcare). Eluted proteins were subjected to salt exchange with a buffer containing 100 mM NaCl, 50 mM Tris-Cl pH 8.0, 3 mM β-mercaptoethanol. The collected proteins were further purified using ion - exchange chromatography (Q column, Hi-Trap, GE Healthcare) followed by overnight treatment with ULP1 at 4 °C to cleave 6xHis-SUMO tag. The tag was separated from proteins by a subsequent Ni-NTA purification. The proteins were further purified on size exclusion 16/600 200 pg column (GE Healthcare) pre-equilibrated with a buffer (100 mM […]
NaCl, 50 mM Tris pH 8.0, 5% Glycerol, 3 mM β-mercaptoethanol). After purifying with a gel filtration column, purity was determined on 12% SDS -PAGE and all three proteins […]
concentrated to 20mg/ml, flash cooled with liquid nitrogen and stored at -80°C.
Isothermal titration calorimetry (ITC) binding studies […]
of PDE4A, PDE4D and PDE10A were determined at 25°C, using Affinity ITC (TA instruments). […]

[2] = target: T2, PDE10A (Homo sapiens, UniProt Q9Y233); test: ITC binding of PTX to the catalytic domain of PDE10A
T2 construct: Catalytic domain of each protein was cloned between BamHI and XhoI restriction sites in; 6xHis-SUMO (N, cleaved yes); made in house; host or cells: E. coli Rosetta 2 (DE3)
T2 sequence (Q9Y233 718-1035 limits assumed): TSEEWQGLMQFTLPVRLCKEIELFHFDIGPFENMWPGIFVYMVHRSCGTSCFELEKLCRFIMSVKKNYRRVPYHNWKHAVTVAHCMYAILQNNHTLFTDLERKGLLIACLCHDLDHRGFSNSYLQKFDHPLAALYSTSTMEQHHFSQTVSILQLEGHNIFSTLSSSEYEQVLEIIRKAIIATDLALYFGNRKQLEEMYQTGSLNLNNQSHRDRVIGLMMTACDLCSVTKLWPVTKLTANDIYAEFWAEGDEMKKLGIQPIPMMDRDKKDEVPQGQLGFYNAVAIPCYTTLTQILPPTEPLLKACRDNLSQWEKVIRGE
Text: as §1, §2, §3, §4
NaCl, 50 mM Tris pH 8.0, 5% Glycerol, 3 mM β-mercaptoethanol). After purifying with a gel filtration column, purity was determined on 12% SDS -PAGE and all three proteins were more than 95% pure (Supplementary Figure S10). Purified proteins were concentrated to 20mg/ml, flash cooled with liquid nitrogen and stored at -80°C.
Isothermal titration calorimetry (ITC) binding studies
The equilibrium molar dissociation constant (Kd), stoichiometry (N) and […]
of PDE4A, PDE4D and PDE10A were determined at 25°C, using Affinity ITC (TA instruments). Protein and ligand solutions for titration were prepared in the same buffer.
The reference cell was filled with a distilled water and the sample cell was filled with 350 […]
μL of either PDE4A or PDE4D or PDE10A (75-500 µM). […]
sequentially injected in 2 μL per injection (for a total 20 injections), at a regular interval of 120-150s, while stirring at 125 rpm. The ITC generated data were processed using NanoAnalyze software (TA Instruments). The ITC data was deconvoluted with the “independent” curve fitting model using a nonlinear least-squares algorithm. […]

## CC(=O)CCCCn1c(=O)c2c(ncn2C)n(C)c1=O [PTX, pentoxifylline]
[1]
  change in enthalpy (ΔH): ~ -8.3±0.30 kcal/mol
  change in entropy (ΔS): ~ -11.90 cal/mol.K
  stoichiometry (N): ~ 1.08±0.03
[2]
  change in enthalpy (ΔH): ~ -8.25±0.04 kcal/mol
  change in entropy (ΔS): ~ -7.8 cal/mol.K
  stoichiometry (N): ~ 1.03±0.04
[2]; 25°C, read-out: molar dissociation constant (Kd)
  pKd: 4.36 and ~4.36
